According to PMC12040169 (PLOS Biology, 2025):

Test: in vitro
Details: human, hela cells, % viability

Row | Compound | viability at 28.5 h, 10 µM [%]
1 | O=C(Nc1ccc(OC(F)(F)F)cc1)c1nn(-c2ncccn2)c2ccccc12 [CBK048510] | 98.9
2 | Cc1cc(NS(=O)(=O)c2cc(C(=O)O)c(Cl)cc2F)n(C)n1 [CBK067260] | 102
3 | Cc1c(NC(=O)C2CN(S(=O)(=O)c3ccccc3)CCN2S(=O)(=O)c2ccccc2)c(=O)n(-c2ccccc2)n1C (stereo not drawn) [CBK264138] | 98
4 | CSCC(=O)N1CC[C@H](NC(=O)NC2CCCCC2)[C@H]1C(=O)N1CCC[C@@H]1C(N)=O [CBK289265] | 124
5 | Cc1cccc(C(=O)Nc2ccc3oc(-c4cccnc4)nc3c2)c1 [CBK073161] | 82.7
6 | CNC(=O)Nc1cc(C(O)(C(F)(F)F)C(F)(F)F)ccc1C [CBK006970] | 113
7 | COc1ccc(CN2C(=O)CC(C(=O)O)S/C2=N\c2ccc(Cl)cc2)cc1 (stereo not drawn) [CBK287259] | 106
8 | CC1CN(Cc2c(C(C)C)[nH]c3ncccc23)CC(C)O1 (stereo not drawn) [CBK282900] | 93.7
9 | O=C(NCCN1CCC(O)(c2cccc(F)c2)CC1)c1cccs1 [CBK282450] | 112
10 | CC(=O)NCCc1nc2ccc(NC(=O)Cn3nc(C)c4ccccc4c3=O)cc2n1C [CBK268249] | 111
11 | O=c1c2ccccc2nc2c3ccccc3c(NCc3ccccn3)nn12 [CBK265964] | 89.3
12 | O=[N+]([O-])c1ccccc1S(=O)(=O)NCc1ccccn1 [CBK261751] | 92.6
13 | COC(=O)CCCC(=O)n1c(=O)n(Cc2ccc(S(C)(=O)=O)cc2)c2ccccc21 [CBK106538] | 105
14 | CCCc1ccc(N(C)C(=O)c2ccc(OC(F)(F)F)cc2)cc1 [CBK161616] | 91.4
15 | Nc1nc(OCc2ccccc2)cnc1-c1cccc(C(F)(F)F)c1 [CBK145179] | 99.4
16 | Cc1ccc(C(=O)Nc2c(C(=O)N3CCN(Cc4ccccc4)CC3)cnn2-c2ccccc2)cc1 [CBK263053] | 91.1
17 | O=C(CCc1nc2ccccc2s1)Nc1nc2ccccc2[nH]1 [CBK287988] | 114
18 | c1csc(CSc2nnc3sc4ccccc4n23)c1 [CBK266291] | 87.9
19 | CS(=O)(=O)Nc1cc2ccccc2c(-c2ccc(OCc3ccccc3)c(F)c2)n1 [CBK073785] | 92.7
20 | COCOc1ccc(-c2nc(-c3cccc(NS(C)(=O)=O)c3)cnc2N)cc1 [CBK063985] | 105
21 | CC1CCN(Cc2ccc(-c3nnn(CC(=O)NCc4ccc(S(N)(=O)=O)cc4)n3)cc2)CC1 [CBK144141C] | 93.3

Row | Compound | viability at 28.5 h, 10 µM [%]
22 | COc1ccc2cc(CNc3ccc(F)c(F)c3)c(=O)[nH]c2c1 [CBK281934] | 83
23 | O=C1NC=CCC12CCCN(S(=O)(=O)c1ccc(F)cc1)C2 (stereo not drawn) [CBK284797] | 93.5
24 | Cc1cc(-c2cc(=O)n(CCc3ccccc3)nc2-c2ccco2)on1 [CBK282879] | 105
25 | COCc1nc(C(=O)Nc2ccc(NC(C)=O)cc2C(F)(F)F)cs1 [CBK306298] | 107
26 | Cc1ccccc1Sc1cccc(C(F)(F)F)n1 [CBK115243] | 103
27 | C=CCNC(=O)[C@H]1C=CCN1C(=O)Nc1ccccc1Cl [CBK282348] | 99
28 | O=S(=O)(c1ccc(-c2cncc(-c3ccc(O)cc3)n2)cc1F)N1CCOCC1 [CBK126903] | 94.3
29 | CCNC(=O)NC[C@H]1C[C@@H]2CCN1C[C@@H]2c1cc(C2CCCC2)nc(C)n1 [CBK289122] | 81.6
30 | CCOc1ccc(NC(=O)c2ccc(CN3CCOCC3)cc2)cc1 [CBK033557] | 89.7
31 | Cc1nnc(SCCCCSc2nnc(C)n2N)n1N [CBK265686] | 88.5
32 | C=CCN1C(=O)CC2(C1=O)C(=O)N(C)c1ccc(OC)cc12 (stereo not drawn) [CBK075158] | 101
33 | COc1cc(C(=O)N2CCC3(CC2)CC(=O)c2ccc(C)cc2O3)cc(-c2ccc(OC)c(OC)c2)c1 [CBK168282] | 89.5
34 | CN(Cc1ccccc1)Cc1cc(CC2(NCc3ccccc3)COC2)no1 [CBK289645] | 88.9
35 | O=C(NCCc1cccnc1)C1CCCN(c2nc3c(-c4ccccc4)csc3c(=O)[nH]2)C1 (stereo not drawn) [CBK215495] | 88.7
36 | O=C(O)CCCN1C(=O)C(O)=C(C(=O)c2ccccc2)C1c1ccccc1 (stereo not drawn) [CBK262924] | 93.3
37 | Cc1c(C)n(O)[n+]([O-])c1-c1ccccc1 [CBK264510N] | 103
38 | c1ccc2sc(CCCCc3nc4ccccc4s3)nc2c1 [CBK261248] | 92.5
39 | C(=C\c1nccnc1OCCc1cccs1)/c1ccccc1 [CBK106873] | 101
40 | Cc1ccc(NC(=O)Cn2nc(C)c([N+](=O)[O-])c2C)cc1Cl [CBK268336] | 98.5
41 | CCn1ncc(CN(C)C(=O)CCC2CCCCN2C)c1C (stereo not drawn) [CBK307329] | 116
42 | CCOc1cccc(-c2cn3ccnc3c(NCCc3ccccn3)n2)c1 [CBK066586] | 94.4

Row | Compound | viability at 28.5 h, 10 µM [%]
43 | COC(=O)[C@@H](C)NC(=O)[C@H]1CN(S(=O)(=O)c2ccccc2)CCN1C(C)=O [CBK289626] | 88.2
44 | CC(NC(=O)Cn1c(-c2nonc2N)nc2ccccc21)c1ccccc1 (stereo not drawn) [CBK266006] | 106
45 | Cc1cc(Cl)cc(Br)c1OCCN1CCN(C)CC1 [CBK269668C] | 93.9
46 | c1ccc(Cn2c3ccccc3c3nnc(SCc4ccc5nonc5c4)nc32)cc1 [CBK267517] | 91.5
47 | Cc1ccn(CCNC(=O)CCN2Cc3ccccc3C2=O)n1 [CBK282655] | 86.4
48 | O=c1[nH]c(=O)c2cc(S(=O)(=O)Nc3ccc(Cn4ccnc4)cc3)ccc2[nH]1 [CBK286383] | 105
49 | O=S(=O)(N1CCOCC1)N1CCCN(S(=O)(=O)N2CCOCC2)CC1 [CBK269068] | 103
50 | Cc1c(Cl)ccc2c(C(=O)NCCCn3cc(Br)cn3)cc(-c3ccncc3)nc12 [CBK267731] | 95.1
51 | CCN(CC)c1ccc(C(=O)CN2CCC(Oc3nccnc3OCc3cccnc3)CC2)cc1 [CBK083167T] | 112
52 | NC1=Nc2nc3ccccc3n2C(c2ccc3c(c2)OCO3)N1 (stereo not drawn) [CBK269906] | 85.7
53 | CCn1c(=O)n(CC2(O)CCCOC2)c2cc(S(=O)(=O)N(C)C)ccc21 (stereo not drawn) [CBK304788] | 90.6
54 | CC(C)(C)NC(=O)COc1ccc(CNCc2ccccn2)cc1 [CBK268420C] | 95.5
55 | N#Cc1ccccc1N1CCN(c2ccc(-c3ccccc3)cn2)CC1 [CBK037590] | 97.8
56 | CCCc1[nH]nc(O)c1CC1CC1 [CBK081129] | 110
57 | Cc1c(-c2ccc(Cl)cc2Cl)nc2ccccc2c1C(=O)NCCCc1ccccc1 [CBK262635] | 89.4
58 | CN(C)C(=O)c1cn2cc(-c3cccs3)n(CC3CC3)c(=O)c2n1 [CBK307440] | 91.4
59 | Cc1ccc2nc(Cl)c(/C=N/NC(=O)CN3CCOCC3)cc2c1 [CBK262731] | 91.2
60 | Cc1cccc(C(=O)N2CCCC(C)C2)c1 (stereo not drawn) [CBK074057] | 95.4
61 | CC1CN(C(=O)/C=C/C(=O)O)c2ccccc2NC1=O (stereo not drawn) [CBK286618] | 108
62 | CCNc1nc(-c2ccc3[nH]ccc3c2)cn2ccnc12 [CBK038002] | 99.5
63 | CC(C)CNc1nc(SCC(N)=O)nc(N(C)C)n1 [CBK269579] | 93.8

Row | Compound | viability at 28.5 h, 10 µM [%]
64 | Fc1ccc(Cn2nnc(-c3ccncc3)n2)c(Cl)c1 [CBK288534] | 102
65 | O=C(NCC(=O)N1CCc2ccccc2C1)C1CCCCC1 [CBK306049] | 107
66 | O=C(COc1ccc(F)cc1)Nc1ccc2ncccc2c1 [CBK159816] | 85.7
67 | O=C(COc1cccc([N+](=O)[O-])c1)Nc1cc(C(=O)O)cc(C(=O)O)c1 [CBK263604] | 114
68 | CSCCCNC(=O)c1ccc2c(c1)nc(N1CC[C@H](O)C1)n2C [CBK306807] | 107
69 | COc1ccccc1CC(C)NC(=O)c1csc(C(C)=O)c1 (stereo not drawn) [CBK282517] | 114
70 | Cc1ccc(CN(Cc2ccco2)CC(O)COCc2ccco2)s1 (stereo not drawn) [CBK304610] | 96.7
71 | COc1ccc(CCN(CCc2ccccc2)CC(O)COc2cccc3c2CCCC3)cc1 (stereo not drawn) [CBK024506T] | 82.2
72 | CC(C(=O)NC1(C#N)CCCCC1)N1CCOC(c2nccs2)C1 (stereo not drawn) [CBK305299] | 80.9
73 | NC(=O)C1CCN(C(=O)CN(c2ccccc2)S(=O)(=O)c2ccccc2[N+](=O)[O-])CC1 [CBK265320] | 78
74 | COc1ccc(-c2nnc(SCc3csc(Nc4ccccc4)n3)n2-c2ccccc2)cc1 [CBK265205] | 89.1
75 | O=C1NC(=O)C(CCCCN2CCCC3(CCN(C(=O)c4cc(F)c(F)cc4F)C3)C2)N1 (stereo not drawn) [CBK132020] | 97.5
76 | COC(=O)c1c(NC(=S)NCc2ccccn2)sc2c1CCC2 [CBK267090] | 95.9
77 | O=C(Cn1cccc2cc(C3CCNCC3)nc1-2)N1CCCC1 [CBK284680] | 98
78 | CC1(C)Cc2c(ccc3ccccc23)C(NCC(=O)O)=N1 [CBK262559] | 97.6
79 | Cc1cnn(CCNc2cc(C(C)C)nc3ccnn23)c1 [CBK306792] | 91.5
80 | N#CCCCN1CCC(Oc2nccnc2OCc2cccc(C(F)(F)F)c2F)CC1 [CBK153646] | 100
81 | Cc1c2c(n(-c3ccccc3)[n+]1[O-])NC1(CCC1)[C@@H]1C[C@@H](O)[C@@H](O)[C@H]21 [CBK303253] | 91.5
82 | COc1cc(OC)nc(CN2C(=O)CC3(C2=O)C(=O)N(CCCN(C)C(=O)c2ccco2)c2ccc(F)cc23)n1 (stereo not drawn) [CBK076006] | 85.6
83 | Cc1ccc2nc(-c3ccncc3)cc(C(=O)Nc3ccc(C(F)(F)F)cc3)c2c1 [CBK267732] | 91.6
84 | NC1CCN(C(=O)c2cn(C3CC3)c3cc(Cl)c(F)cc3c2=O)CC1 [CBK168626] | 93.3

Same assay, conditions: human, hela cells, % viability, bulk resorufin, single well

Row | Compound | viability at 28.5 h, 10 µM [%]
85 | CSc1ccc(C(=O)C(C)(C)N2CCOCC2)cc1 [CBK028870] | 107
86 | Cc1cccc(N2C(=O)NC(=O)C(CCc3ccccn3)(CCc3ccccn3)C2=O)c1C [CBK269075] | 91.7
87 | CCOC(=O)C1(c2ccccc2)CCN(C(=O)Cc2nnn[nH]2)CC1 [CBK132182] | 94.6
